Converted amounts (≈) assume the structure as drawn.
How the values were obtained:
Assay type in all cases: functional
Conditions in all cases: 168 h
[1] = test system: Mycobacterium tuberculosis; experiment: Antitubercular activity against isoniazid-resistant Mycobacterium tuberculosis after 7 days by resazurin dye based colorimetric assay
[2] = test system: Mycobacterium tuberculosis; experiment: Antitubercular activity against d-cycloserine-resistant Mycobacterium tuberculosis after 7 days by resazurin dye based colorimetric assay
[3] = test system: Mycobacterium tuberculosis; experiment: Antitubercular activity against kanamycin-resistant Mycobacterium tuberculosis after 7 days by resazurin dye based colorimetric assay
[4] = test system: Mycobacterium tuberculosis; experiment: Antitubercular activity against rifampicin-resistant Mycobacterium tuberculosis after 7 days by resazurin dye based colorimetric assay
[5] = test system: Mycobacterium tuberculosis; experiment: Antitubercular activity against streptomycin-resistant Mycobacterium tuberculosis after 7 days by resazurin dye based colorimetric assay
[6] = test system: Mycobacterium tuberculosis; experiment: Antitubercular activity against moxifloxacin-resistant Mycobacterium tuberculosis after 7 days by resazurin dye based colorimetric assay

Structure (SMILES) | MIC [1] | MIC [2] | MIC [3] | MIC [4] | MIC [5] | MIC [6]
CC(C)c1ccc(-c2nc(CN3CCN(c4ccnc5cc(Cl)ccc45)CC3)no2)cc1 | 4.17 µg/mL (≈ 9.31 µM) | 3.68 µg/mL (≈ 8.21 µM) | 3.24 µg/mL (≈ 7.23 µM) | 3.81 µg/mL (≈ 8.51 µM) | 28.6 µg/mL (≈ 63.8 µM) | 4.01 µg/mL (≈ 8.95 µM)
NNC(=O)c1ccncc1 [ISONIAZID] | > 8 µg/mL | 3.78 µg/mL (≈ 27.6 µM) | 0.49 µg/mL (≈ 3.57 µM) | 0.49 µg/mL (≈ 3.57 µM) | 1 µg/mL (≈ 7.29 µM) | 0.49 µg/mL (≈ 3.57 µM)
CC(=O)NC[C@H]1CN(c2ccc(N3CCOCC3)c(F)c2)C(=O)O1 [LINEZOLID] | 2.33 µg/mL (≈ 6.91 µM) | 10.3 µg/mL (≈ 30.7 µM) | 1.91 µg/mL (≈ 5.66 µM) | 1.68 µg/mL (≈ 4.98 µM) | 14.1 µg/mL (≈ 41.7 µM) | 3.65 µg/mL (≈ 10.8 µM)
COc1c(N2C[C@@H]3CCCN[C@@H]3C2)c(F)cc2c(=O)c(C(=O)O)cn(C3CC3)c12 [MOXIFLOXACIN] | 0.49 µg/mL (≈ 1.22 µM) | 0.46 µg/mL (≈ 1.15 µM) | 0.21 µg/mL (≈ 0.523 µM) | 0.42 µg/mL (≈ 1.05 µM) | 0.94 µg/mL (≈ 2.34 µM) | > 16 µg/mL
CO[C@H]1/C=C/O[C@@]2(C)Oc3c(C)c(O)c4c(O)c(c(/C=N/N5CCN(C)CC5)c(O)c4c3C2=O)NC(=O)/C(C)=C\C=C\[C@H](C)[C@H](O)[C@@H](C)[C@@H](O)[C@@H](C)[C@H](OC(C)=O)[C@@H]1C [RIFAMPIN] | < 0.02 µg/mL | < 0.02 µg/mL | < 0.02 µg/mL | > 4 µg/mL | 0.05 µg/mL (≈ 0.0608 µM) | 0.23 µg/mL (≈ 0.279 µM)

Source: ChEMBL document CHEMBL4308875, “Synthesis, antituberculosis studies and biological evaluation of new quinoline derivatives carrying 1,2,4-oxadiazole moiety” (Bioorg Med Chem Lett, 2019)
